Source: patent US10358453B2, “Antiviral compounds” (priority 2015, dated 2019)
Read-outs that look alike come from different tables or passages of the source.

Columns and labels:
[1] = system: RSV subgenomic replicon 395 HeLa and APC126; assay: RSV subgenomic replicon assay (Renilla luciferase); format: cell-based; details: human respiratory syncytial virus; RSV replicon cells (395 HeLa 7 days or APC126 3 days); Table G = less than 1 μM, Table H = equal to or higher than 1 μM and less than 50 μM
Excerpt: The RSV subgenomic replicon 395 HeLa and APC126 were licensed from Apath (Brooklyn, N.Y.) and were originally developed by Dr. Mark Meeples of Center for Vaccines & Immunity, the Research Institute at Nationwide Children's Hospital in Columbus, Ohio. To generate subgenomic RSV replicon, three glycoprotein genes, those for SH, G, and F, from a full-length recombinant GFP-expressing (rg) RSV antigenomic cDNA were deleted. In their place, a blasticidin S deaminase (bsd) gene was inserted. Through multiple steps, the RSV replicon was established in HeLa cells (395 Hela) or BHK cells (APC126). Both 395 HeLa and APC126 cells were cultured in Dulbecco's Modified Eagle Medium (DMEM) containing 4500 mg/L D-glucose, L-glutamine, and 110 mg/L sodium pyruvate (Invitrogen, Cat. #11995-040). The medium was further supplemented with 10% (v/v) fetal bovine serum (FBS) (Mediatech, Cat. #35-010-CV), 1% (v/v) penicillin/streptomycin (Mediatech, Cat. #30-002-CI), and 10 μg/mL of Blasticidin (BSD) (Invivogen, Cat. code ant-bl-1). Cells were maintained at 37° C. in a humidified 5% CO2 atmosphere.
Determination of 50% inhibitory concentration (EC50), 90% inhibitory concentration (EC90) and 50% cytotoxic concentration (CC50) in RSV replicon cells were performed by the following procedure. On the first day, 5000 RSV replicon cells per well were plated in a 96-well plate. On the following day, compounds to be tested were solubilized in 100% DMSO to 100X the desired final testing concentration. Each compound was serially diluted (1:3) up to 9 distinct concentrations. Compounds in 100% DMSO were reduced to 10% (v/v) DMSO by diluting 1:10 in cell culture media. A 10 μL sample of the compounds diluted to 10% (v/v) DMSO with cell culture media was used to treat the RSV replicon cells in 96-well format. The final DMSO concentration was 1% (v/v). Cells were incubated with compounds for 7 days (for 395Hela) or 3 days (for APC126) at 37° C. in a 5% CO2 atmosphere. In each assay, positive control that was previously characterized in the RSV replicon assay was included.
The Renilla Luciferase Assay System (Promega, Cat. #E2820) was used to measure anti-RSV replicon activity. Assay plates were set up as stated above. Luminescence was recorded using a Perkin Elmer multilabel counter Victor3V. EC50, the concentration of the drug required for reducing RSV replicon RNA by 50% in relation to the untreated cell control value, was calculated from the plot of percentage reductions of the […] against the drug concentrations using the Microsoft Excel forecast function.

[2] = Cytotoxicity determination (CCK-8, without addition of virus); format: cell-based; details: human, HEp-2 cells (uninfected), no virus, Table C = greater than 100 μM, Table D = equal to or less than 100 μM and greater than 10 μM
Protocol: CPE reduction assays are performed as described by Sidwell and Huffman et al., Appl. Microbiol. (1971) 22(5):797-801 with slight modifications. HEp-2 cells (ATCC#, CCL-23) are seeded at a density of 1,500 cells/30 μL/well into the 384-well cell plate(s) (Corning#3701) one day prior to the assay. Compounds are added into 384-well cell plates by Labcyte POD 810 Plate Assembler system. Each of the test compounds is provided to duplicate wells of a 384-well cell plate at final concentrations starting from 100 μM or 1 μM using 1/3 stepwise dilutions for 9 points. Quick-thaw Respiratory Syncytial Virus (RSV) long strain (ATCC#VR-26) stock in a 37° C. water bath. Place on ice until ready to use. Viruses are diluted to the concentration of 100 TCID50/30 μL with medium and 30 μl diluted RSV are added into related wells of 384-well cell plates. For each plate, sixteen wells are set aside as uninfected, untreated cell controls (CC), and nine wells per test plate receive virus only as a control for virus replication (VC). The final DMSO concentration of all wells is 1%. Place the plates at 37° C., 5% CO2 for 5 days.
In order to determine the compound cytotoxicity, in parallel, each of the compounds is applied to duplicate wells in a 384-well cell plate at serial final concentrations starting from 100 μM using ½ stepwise dilutions for 7 points without addition of virus. Incubate the cells at 37° C., 5% CO2 for 5 days. Add 6 μL CCK-8 into each well and incubate in a CO2 incubator at 37° C. for 3-4 h. Read the plates to obtain the optical densities which are used to calculate 50% cytotoxicity concentration (CC50).

recombinant RSV complex = recombinant RSV complex (Human respiratory syncytial virus A, UniProt P28887); assay: RSV polymerase inhibition assay; format: biochemical; details: 2 h at 30° C., Table E = <1 μM, Table F = <50 μM
Protocol: Standard RSV polymerase assays were conducted in the presence of 10 nM recombinant RSV complex in a reaction buffer containing Tris-HCl pH7.5, 6 mM MgCl2, and other additives and substrates including RNA oligonucleotides and radionucleotides. Standard reactions were incubated in 96-well plate format for 2 h at 30° C., in the presence of increasing concentration of inhibitor. The reaction was stopped with 90 μL of 0.1M EDTA, and the reaction product was transferred to a “reading” 96-well plate. After washing of the plate, radiolabeled RNA products were detected according to standard procedures with a Trilux Topcount scintillation counter. The compound concentration at which the enzyme-catalyzed rate was reduced by 50% (IC50) was calculated by fitting the data to a non-linear regression (sigmoidal).

[3] = 10 nM recombinant RSV complex, read-out: IC50

Sequence of recombinant RSV complex (P28887 whole entry): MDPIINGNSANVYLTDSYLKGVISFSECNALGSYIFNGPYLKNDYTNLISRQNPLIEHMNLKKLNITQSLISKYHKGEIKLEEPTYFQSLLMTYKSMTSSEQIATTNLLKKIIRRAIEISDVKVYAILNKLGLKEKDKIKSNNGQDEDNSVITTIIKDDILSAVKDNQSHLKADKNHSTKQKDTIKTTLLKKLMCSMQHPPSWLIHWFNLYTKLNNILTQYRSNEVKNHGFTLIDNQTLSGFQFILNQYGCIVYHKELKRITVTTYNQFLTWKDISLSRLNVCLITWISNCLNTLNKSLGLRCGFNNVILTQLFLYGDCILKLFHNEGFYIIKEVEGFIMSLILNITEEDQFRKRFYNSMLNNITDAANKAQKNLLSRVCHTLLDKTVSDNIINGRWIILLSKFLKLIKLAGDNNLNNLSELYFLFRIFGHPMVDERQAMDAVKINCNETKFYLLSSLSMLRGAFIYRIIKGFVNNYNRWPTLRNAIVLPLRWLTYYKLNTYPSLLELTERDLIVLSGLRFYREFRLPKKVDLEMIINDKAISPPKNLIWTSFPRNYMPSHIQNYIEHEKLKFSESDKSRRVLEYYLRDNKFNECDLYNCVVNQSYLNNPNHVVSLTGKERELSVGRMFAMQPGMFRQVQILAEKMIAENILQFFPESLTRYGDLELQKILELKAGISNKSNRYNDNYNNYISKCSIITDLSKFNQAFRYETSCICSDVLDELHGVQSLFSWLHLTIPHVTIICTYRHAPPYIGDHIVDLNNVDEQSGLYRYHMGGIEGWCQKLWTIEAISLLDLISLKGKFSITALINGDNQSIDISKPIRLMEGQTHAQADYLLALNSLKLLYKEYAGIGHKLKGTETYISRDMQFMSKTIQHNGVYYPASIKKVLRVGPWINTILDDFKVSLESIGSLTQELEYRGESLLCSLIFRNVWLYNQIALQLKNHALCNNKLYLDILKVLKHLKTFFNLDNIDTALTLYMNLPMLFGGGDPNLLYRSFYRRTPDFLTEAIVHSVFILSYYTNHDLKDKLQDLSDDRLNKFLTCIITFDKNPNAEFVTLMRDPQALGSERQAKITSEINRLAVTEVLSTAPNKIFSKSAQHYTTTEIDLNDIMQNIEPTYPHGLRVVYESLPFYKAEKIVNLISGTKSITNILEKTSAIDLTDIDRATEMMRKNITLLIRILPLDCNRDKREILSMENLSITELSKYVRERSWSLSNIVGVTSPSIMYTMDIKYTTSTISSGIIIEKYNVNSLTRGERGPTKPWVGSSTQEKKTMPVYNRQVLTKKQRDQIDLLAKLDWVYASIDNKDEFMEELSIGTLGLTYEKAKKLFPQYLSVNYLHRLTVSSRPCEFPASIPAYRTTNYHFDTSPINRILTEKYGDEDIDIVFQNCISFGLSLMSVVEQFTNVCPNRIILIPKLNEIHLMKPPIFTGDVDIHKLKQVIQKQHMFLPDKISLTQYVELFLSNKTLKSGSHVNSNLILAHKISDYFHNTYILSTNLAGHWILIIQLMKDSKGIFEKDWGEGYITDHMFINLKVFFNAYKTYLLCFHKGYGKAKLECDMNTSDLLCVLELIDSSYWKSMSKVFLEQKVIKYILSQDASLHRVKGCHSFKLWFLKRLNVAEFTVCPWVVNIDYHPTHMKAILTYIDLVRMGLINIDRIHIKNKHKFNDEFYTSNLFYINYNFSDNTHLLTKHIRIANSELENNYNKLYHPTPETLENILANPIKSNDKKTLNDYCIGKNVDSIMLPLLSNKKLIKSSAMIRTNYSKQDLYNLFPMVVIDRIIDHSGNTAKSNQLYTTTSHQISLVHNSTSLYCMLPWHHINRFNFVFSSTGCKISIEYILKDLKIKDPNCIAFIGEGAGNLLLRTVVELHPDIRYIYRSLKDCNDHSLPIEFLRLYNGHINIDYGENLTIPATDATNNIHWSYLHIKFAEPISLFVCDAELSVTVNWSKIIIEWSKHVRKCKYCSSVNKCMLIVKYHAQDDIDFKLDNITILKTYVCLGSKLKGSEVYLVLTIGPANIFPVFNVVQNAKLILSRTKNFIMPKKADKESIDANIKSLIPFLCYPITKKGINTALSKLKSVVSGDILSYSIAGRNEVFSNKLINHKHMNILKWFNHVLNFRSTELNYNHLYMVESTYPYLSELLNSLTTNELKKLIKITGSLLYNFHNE
Sequence of recombinant RSV complex (P03421 whole entry, further chain): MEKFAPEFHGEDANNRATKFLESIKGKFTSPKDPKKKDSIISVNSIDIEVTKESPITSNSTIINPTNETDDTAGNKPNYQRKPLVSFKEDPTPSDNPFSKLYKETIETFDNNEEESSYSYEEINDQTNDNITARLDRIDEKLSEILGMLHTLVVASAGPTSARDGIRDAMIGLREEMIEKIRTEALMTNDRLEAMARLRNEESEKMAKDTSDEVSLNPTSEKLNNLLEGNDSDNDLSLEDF

Compound | EC50 [1] | CC50 at 5 days [2] | IC50 (recombinant RSV complex; [3]) | IC50 (recombinant RSV complex; IC50, 10 nM recombinant RSV complex)
COc1cc(C(=S)NCC(O)(c2cc3c(c(-c4ccc(F)cc4)n2)OCC3(C)N)C(F)(F)F)ccc1OCCO (stereo not drawn) [Compound 44] | < 1 µM | 10 to 100 µM | < 1 µM | 
C[C@@]1(N)COc2c1cc([C@](O)(CNC(=O)c1cc(OC(F)F)c3[nH]ccc3c1)C(F)(F)F)nc2-c1ccc(F)cc1 [Compound 94] | < 1 µM | 10 to 100 µM | < 1 µM | 
COc1cc(C(=O)NC[C@@](O)(c2cc3c(c(-c4ccc(F)cc4)n2)OC[C@@]3(C)N)C(F)(F)F)ccc1-c1nc(C)no1 [Compound 19] | < 1 µM | 10 to 100 µM | < 1 µM | 
COc1cc(C(=O)NC[C@](O)(c2cc3c(c(-c4ccc(F)cc4)n2)NCC[C@]3(C)N)C(F)(F)F)ccc1OC[C@@H](C)O [Compound 101] | < 1 µM | 10 to 100 µM | < 1 µM | 
C[C@@]1(N)CNc2c1cc([C@](O)(CNC(=O)c1ccc3c(c1)CC(=O)N3CCO)C(F)(F)F)nc2-c1ccc(F)cc1 [Compound 82] | < 1 µM | > 100 µM |  | < 1 µM
COc1cc(C(=O)NCC(O)(c2cc3c(c(-c4ccc(F)cc4)n2)OCCC3(N)C2CC2)C(F)(F)F)ccc1OC[C@@H](C)O (stereo partly drawn) [Compound 92] | < 1 µM | 10 to 100 µM | < 1 µM | 
COc1cc(C(=O)NCC(O)(c2cc3c(c(-c4ccc(F)cc4)n2)OCC3(C)N)C(F)(F)F)ccc1NCCO (stereo not drawn) [Compound 30] | < 1 µM | 10 to 100 µM | < 1 µM | 
COc1cc(C(=O)NCC(O)(c2cc3c(c(-c4ccc(F)cc4)n2)OCC3(N)CO)C(F)(F)F)cc2cc[nH]c12 (stereo not drawn) [Compound 102] | 1 to 50 µM | 10 to 100 µM | < 1 µM | 
COc1cc(C(=O)NC[C@@](O)(c2cc3c(c(-c4ccc(F)cc4)n2)OC[C@@]3(C)N)C(F)(F)F)cc(OC)c1CCCO [Compound 65] | < 1 µM | 10 to 100 µM | < 1 µM | 
C[C@@]1(N)COc2c1cc([C@](O)(CNC(=O)c1ccc(OCCO)c(OC3CC3)c1)C(F)(F)F)nc2-c1ccc(F)cc1 [Compound 55] | < 1 µM | 10 to 100 µM | < 1 µM | 
COc1cc(C(=O)NC[C@@](O)(c2cc(C3(C)CCN3)cc(-c3ccc(F)cc3)n2)C(F)(F)F)ccc1OC[C@@H](C)O (single isomer, unassigned) [Compound 15] | < 1 µM | 10 to 100 µM | < 1 µM | 
COc1nc(C(=O)NCC(O)(c2cc3c(c(-c4ccc(F)cc4)n2)OCC3(C)N)C(F)(F)F)cc2c1NC(=O)C2 (stereo not drawn) [Compound 47] | < 1 µM | 10 to 100 µM | < 1 µM | 
COc1cc(C(=O)NC[C@@](O)(c2cc3c(c(-c4ccc(F)cc4)n2)OC[C@@]3(C)N)C(F)(F)F)cc2nc[nH]c12 [Compound 95] | < 1 µM | 10 to 100 µM | < 1 µM | 
COc1cc(C(=O)NC[C@@](O)(c2cc3c(c(-c4ccc(F)cc4)n2)NC[C@@]3(C)N)C(F)(F)F)ccc1OCCO (single isomer, unassigned) [Compound 51] | < 1 µM | > 100 µM | < 1 µM | 
COc1ccc(C(=O)NCC(O)(c2cc(C(C)(C)N)cc(-c3ccc(F)cc3)n2)C(F)(F)F)cc1OCCO (stereo not drawn) [Compound 37] | < 1 µM | > 100 µM | < 1 µM | 
COc1cc(C(=O)NCC(O)(c2cc3c(c(-c4ccc(F)cc4)n2)OCC3(C)N)C(F)(F)F)cc2c1NC(=O)NC2 (stereo not drawn) [Compound 43] | 1 to 50 µM | 10 to 100 µM | < 1 µM | 
COc1cc(C(=O)NCC(N)(c2cc(C(C)(C)N)cc(-c3ccc(F)cc3)n2)C(F)(F)F)ccc1OCCO (stereo not drawn) [Compound 40] | < 1 µM | > 100 µM | < 1 µM | 
COc1cc(C(=O)NC[C@@](O)(c2cc3c(c(-c4ccc(F)cc4)n2)OC[C@@]3(C)N)C(F)(F)F)cc(F)c1OC[C@@H](C)O [Compound 122] | < 1 µM | 10 to 100 µM | < 1 µM | 
COc1cc(C(=O)NC[C@@](O)(c2cc3c(c(-c4ccc(F)cc4)n2)OC[C@@]3(C)NC(N)=O)C(F)(F)F)ccc1OC[C@@H](C)O [Compound 132] | < 1 µM | 10 to 100 µM | < 1 µM | 
COc1cc(C(=O)NC[C@@](O)(c2cc3c(c(-c4ccc(F)cc4)n2)OC[C@@]3(C)N)C(F)(F)F)cc2ccc(C(C)O)nc12 (stereo partly drawn) [Compound 91] | < 1 µM | 10 to 100 µM | < 1 µM | 
COc1cc(C(=O)NCC(O)(c2nc(-c3ccc(F)cc3)cc3c2OC(C)(N)C3)C(F)(F)F)ccc1OC[C@@H](C)O (stereo partly drawn) [Compound 120] | < 1 µM | 10 to 100 µM | < 1 µM | 
COc1cc(C(=O)NC[C@](O)(c2cc3c(c(-c4ccc(F)cc4)n2)OCC[C@]3(C)N)C(F)(F)F)ccc1OC[C@@H](C)O (single isomer, unassigned) [Compound 87] | < 1 µM | > 100 µM | < 1 µM | 
C[C@@]1(N)COc2c1cc([C@](O)(CNC(=O)c1cc(OCCO)c3[nH]ccc3c1)C(F)(F)F)nc2-c1ccc(F)cc1 [Compound 124] | < 1 µM | 10 to 100 µM | < 1 µM | 
COc1cc(C(=O)NCC(O)(c2cc3c(c(-c4ccc(F)cc4)n2)CCC3(C)N)C(F)(F)F)ccc1OCCO (stereo not drawn) [Compound 73] | < 1 µM | 10 to 100 µM | < 1 µM | 
COc1cc(C(=O)NC[C@](O)(c2cc3c(c(-c4ccc(F)cc4)n2)OC[C@]3(N)C2CC2)C(F)(F)F)ccc1OC[C@@H](C)O (single isomer, unassigned) [Compound 107] | 1 to 50 µM | 10 to 100 µM | < 50 µM | 
COc1cc(C(=O)NC[C@@](O)(c2cc3c(c(-c4ccc(F)cc4)n2)OC[C@@]3(C)N)C(F)(F)F)ccc1OCC(C)=O [Compound 121] | < 1 µM | 10 to 100 µM | < 1 µM | 
COc1nc(C(=O)NC[C@@](O)(c2cc3c(c(-c4ccc(F)cc4)n2)OC[C@@]3(C)N)C(F)(F)F)cc2c1NC(=O)C2 [Compound 93] | 1 to 50 µM | 10 to 100 µM | < 50 µM | 
